In PubChem BioAssay (NCI):
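Exposure lasted 48 hours, with cells grown in 96-well plates and compounds tested at five concentrations. At the TGI there is no net growth.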

How the values were obtained:
Test in all cases: DTP human tumour cell line panel, 48 h
K-562 leukemia = system: K-562 leukemia
HL-60(TB) leukemia = system: HL-60(TB) leukemia
NCI-H226 lung = system: NCI-H226 lung
CAKI-1 renal = system: CAKI-1 renal
SF-539 CNS = system: SF-539 CNS
COLO 205 colon = system: COLO 205 colon
HCT-116 colon = system: HCT-116 colon
MOLT-4 leukemia = system: MOLT-4 leukemia
PC-3 prostate = system: PC-3 prostate
NCI/ADR-RES ovarian = system: NCI/ADR-RES ovarian
SK-MEL-5 melanoma = system: SK-MEL-5 melanoma
NCI-H460 lung = system: NCI-H460 lung
M14 melanoma = system: M14 melanoma
MALME-3M melanoma = system: MALME-3M melanoma
HS 578T breast = system: HS 578T breast
MDA-N = system: MDA-N
HCT-15 colon = system: HCT-15 colon
786-0 renal = system: 786-0 renal
KM12 colon = system: KM12 colon
HCC-2998 colon = system: HCC-2998 colon
EKVX NSCLC = system: EKVX NSCLC
MDA-MB-435 = system: MDA-MB-435
NCI-H23 lung = system: NCI-H23 lung
SN12C renal = system: SN12C renal
HOP-62 NSCLC = system: HOP-62 NSCLC
UO-31 renal = system: UO-31 renal
SK-OV-3 ovarian = system: SK-OV-3 ovarian
OVCAR-8 ovarian = system: OVCAR-8 ovarian
SK-MEL-28 melanoma = system: SK-MEL-28 melanoma
BT-549 breast = system: BT-549 breast
ACHN renal = system: ACHN renal
T-47D breast = system: T-47D breast
OVCAR-4 ovarian = system: OVCAR-4 ovarian
MDA-MB-231 breast = system: MDA-MB-231 breast
A498 renal = system: A498 renal
MCF7 breast = system: MCF7 breast
NCI-H522 lung = system: NCI-H522 lung
SK-MEL-2 melanoma = system: SK-MEL-2 melanoma
OVCAR-3 ovarian = system: OVCAR-3 ovarian
UACC-257 melanoma = system: UACC-257 melanoma
U251 CNS = system: U251 CNS
HT29 colon = system: HT29 colon
A549 NSCLC = system: A549 NSCLC
OVCAR-5 ovarian = system: OVCAR-5 ovarian
IGROV1 ovarian = system: IGROV1 ovarian
TK-10 renal = system: TK-10 renal
DU-145 prostate = system: DU-145 prostate
SF-295 CNS = system: SF-295 CNS
SNB-75 CNS = system: SNB-75 CNS
SW-620 colon = system: SW-620 colon
UACC-62 melanoma = system: UACC-62 melanoma
CCRF-CEM leukemia = system: CCRF-CEM leukemia
LOX IMVI melanoma = system: LOX IMVI melanoma
SF-268 CNS = system: SF-268 CNS
HOP-92 NSCLC = system: HOP-92 NSCLC
SNB-19 CNS = system: SNB-19 CNS
RPMI-8226 leukemia = system: RPMI-8226 leukemia
RXF 393 renal = system: RXF 393 renal

Work on `O=[N+]([O-])c1ccc(C2=NOC(c3ccccc3)N2C23CC4CC(CC(C4)C2)C3)cc1` (centres undefined) yielded a TGI (K-562 leukemia) of 39.9 µM, a TGI (HL-60(TB) leukemia) greater than 100 µM and a TGI (NCI-H226 lung) of 89.9 µM. The TGI (CAKI-1 renal) was 3.23 µM, the TGI (SF-539 CNS) was greater than 100 µM and the TGI (COLO 205 colon) was 88.1 µM. It also gave a TGI (HCT-116 colon) of 63.9 µM, a TGI (MOLT-4 leukemia) of 37.8 µM and a TGI (PC-3 prostate) of 43.8 µM. It also gave a TGI (NCI/ADR-RES ovarian) greater than 100 µM, a TGI (SK-MEL-5 melanoma) of 38.4 µM and a TGI (NCI-H460 lung) of 47.5 µM. For the same compound, the TGI (M14 melanoma) was 88.4 µM, the TGI (MALME-3M melanoma) was 85.5 µM and the TGI (HS 578T breast) was 52.6 µM. For the same compound, the TGI (MDA-N) was 58 µM, the TGI (HCT-15 colon) was greater than 100 µM and the TGI (786-0 renal) was 57.9 µM. For the same compound, the TGI (KM12 colon) was 71.9 µM, the TGI (HCC-2998 colon) was greater than 100 µM and the TGI (EKVX NSCLC) was greater than 100 µM. For the same compound, the TGI (MDA-MB-435) was 44.5 µM, the TGI (NCI-H23 lung) was greater than 100 µM and the TGI (SN12C renal) was greater than 100 µM. It also gave a TGI (HOP-62 NSCLC) of 80.2 µM, a TGI (UO-31 renal) of 67.3 µM and a TGI (SK-OV-3 ovarian) greater than 100 µM. For the same compound, the TGI (OVCAR-8 ovarian) was 48.4 µM, the TGI (SK-MEL-28 melanoma) was greater than 100 µM and the TGI (BT-549 breast) was 46 µM. It also gave a TGI (ACHN renal) greater than 100 µM, a TGI (T-47D breast) greater than 100 µM and a TGI (OVCAR-4 ovarian) greater than 100 µM. For the same compound, the TGI (MDA-MB-231 breast) was greater than 100 µM, the TGI (A498 renal) was greater than 100 µM and the TGI (MCF7 breast) was 60.1 µM. For the same compound, the TGI (NCI-H522 lung) was 35.3 µM, the TGI (SK-MEL-2 melanoma) was 37.5 µM and the TGI (OVCAR-3 ovarian) was 50.1 µM. It also gave a TGI (UACC-257 melanoma) greater than 100 µM, a TGI (U251 CNS) greater than 100 µM and a TGI (HT29 colon) of 44.6 µM. It also gave a TGI (A549 NSCLC) of 96.7 µM, a TGI (OVCAR-5 ovarian) of 53.2 µM and a TGI (IGROV1 ovarian) of 72.5 µM. For the same compound, the TGI (TK-10 renal) was greater than 100 µM, the TGI (DU-145 prostate) was 95 µM and the TGI (SF-295 CNS) was 66.6 µM. It also gave a TGI (SNB-75 CNS) of 63.7 µM, a TGI (SW-620 colon) greater than 100 µM and a TGI (UACC-62 melanoma) of 85.8 µM. It also gave a TGI (CCRF-CEM leukemia) of 47.5 µM, a TGI (LOX IMVI melanoma) of 29.3 µM and a TGI (SF-268 CNS) greater than 100 µM.
`COC(=O)C(Cc1c(-c2[nH]c3ccccc3c2CC(NC(C)=O)C(=O)OC)[nH]c2ccccc12)NC(C)=O` (centres undefined) was tested, and the TGI (K-562 leukemia) was greater than 100 µM, the TGI (HL-60(TB) leukemia) was greater than 100 µM and the TGI (NCI-H226 lung) was greater than 100 µM. It also gave a TGI (CAKI-1 renal) greater than 100 µM, a TGI (SF-539 CNS) greater than 100 µM and a TGI (COLO 205 colon) greater than 100 µM. It also gave a TGI (HCT-116 colon) greater than 100 µM, a TGI (MOLT-4 leukemia) greater than 100 µM and a TGI (PC-3 prostate) greater than 100 µM. The TGI (NCI/ADR-RES ovarian) was greater than 100 µM, the TGI (SK-MEL-5 melanoma) was greater than 100 µM and the TGI (NCI-H460 lung) was greater than 100 µM. For the same compound, the TGI (M14 melanoma) was greater than 100 µM, the TGI (MALME-3M melanoma) was greater than 100 µM and the TGI (HS 578T breast) was greater than 100 µM. The TGI (MDA-N) was greater than 100 µM, the TGI (HCT-15 colon) was greater than 100 µM and the TGI (786-0 renal) was greater than 100 µM. The TGI (KM12 colon) was greater than 100 µM, the TGI (HOP-92 NSCLC) was greater than 100 µM and the TGI (EKVX NSCLC) was greater than 100 µM. The TGI (MDA-MB-435) was greater than 100 µM, the TGI (NCI-H23 lung) was greater than 100 µM and the TGI (SN12C renal) was greater than 100 µM. The TGI (HOP-62 NSCLC) was greater than 100 µM, the TGI (UO-31 renal) was greater than 100 µM and the TGI (SNB-19 CNS) was greater than 100 µM. The TGI (SK-OV-3 ovarian) was greater than 100 µM, the TGI (OVCAR-8 ovarian) was greater than 100 µM and the TGI (SK-MEL-28 melanoma) was greater than 100 µM. The TGI (BT-549 breast) was greater than 100 µM, the TGI (ACHN renal) was greater than 100 µM and the TGI (T-47D breast) was greater than 100 µM. For the same compound, the TGI (MDA-MB-231 breast) was greater than 100 µM, the TGI (A498 renal) was greater than 100 µM and the TGI (NCI-H522 lung) was greater than 100 µM. For the same compound, the TGI (RPMI-8226 leukemia) was greater than 100 µM, the TGI (SK-MEL-2 melanoma) was greater than 100 µM and the TGI (OVCAR-3 ovarian) was greater than 100 µM. It also gave a TGI (UACC-257 melanoma) greater than 100 µM, a TGI (U251 CNS) greater than 100 µM and a TGI (HT29 colon) greater than 100 µM. It also gave a TGI (A549 NSCLC) greater than 100 µM, a TGI (OVCAR-5 ovarian) greater than 100 µM and a TGI (IGROV1 ovarian) greater than 100 µM. The TGI (TK-10 renal) was greater than 100 µM, the TGI (DU-145 prostate) was greater than 100 µM and the TGI (SF-295 CNS) was greater than 100 µM. It also gave a TGI (SNB-75 CNS) greater than 100 µM, a TGI (RXF 393 renal) greater than 100 µM and a TGI (SW-620 colon) greater than 100 µM. It also gave a TGI (UACC-62 melanoma) greater than 100 µM, a TGI (CCRF-CEM leukemia) greater than 100 µM and a TGI (LOX IMVI melanoma) greater than 100 µM. The TGI (SF-268 CNS) was greater than 100 µM.
